Values after ≈ are worked out from the molar mass of the structure shown.
Key:
Shh-LIGHT2 cells = assay: GLI-dependent reporter gene assay (RGA); assay type: cell-based; conditions: for Inhibition of GLI-dependent reporter gene expression (in words): Shh-LIGHT2 cells
Experimental: using a three-fold dilution series starting from a concentration of 30 μM. Half-maximal inhibitory concentrations (IC50) were calculated using the Quattro software suite (Quattro Research, Planegg, Germany) or GraphPad Prism 7 (GraphPad, USA). […]
GLI-dependent reporter gene assay
Shh-LIGHT2 cells were seeded (2.5×10^4 per well) in 96-well plates. After incubation for 16 h, medium was replaced by low serum-containing medium (0.5% FCS) supplemented with 1.5 μM purmorphamine and various concentrations of the compounds or DMSO as a control and cells were incubated for 48 h. […]

NIH/3T3 cells = assay: Smoothened trafficking (ciliary localization of SMO); assay type: cell-based; conditions: purmorphamine stimulation
Experimental: in fresh medium containing 0.5 % FBS and 5 nM BODIPY-cyclopamine for 4 h. Afterwards, cell nuclei were stained with 1 µg/ml DAPI for 10 min, samples were washed three times with PBS and subsequently mounted on glass slides using Aqua Polymount (Polysciences Inc).
Images were acquired on an Axiovert Observer Z1 microscope (Carl Zeiss, Germany) using a Plan-Apochromat 63x/1.40 Oil DIC M27 objective.
Additionally, SMO binding was confirmed by flow cytometry. HEK293T cells were seeded (3×10^5 per well) in 6-well plate and transfected with BFP-SMO-expressing plasmid using FuGENE HD transfection reagent according to the manufacturer’s instructions. After 48 h of incubation the medium was replaced by DMEM containing 0.5% FBS, 5 nM BODIPY-cyclopamine and various concentrations of the test compounds or DMSO as a control. […]
projections, after previous background subtraction. For quantification, cilia were identified and […]
Smoothened antibody were measured within these areas. […]
significances were assessed using an unpaired t-test (confidence interval of 95%) with the […]
replicates were performed and for each replicate at least 100 cilia per condition were analyzed.
Reverse transcription- quantitative PCR (RT-qPCR) […]
DNase I digestion step. The concentration of purified RNA was determined by means of the […]

[1] = Kinetic solubility determination; assay type: physicochemical; conditions: for solubility kinetic: aqueous buffer, pH 7.4, aqueous buffer, kinetic from dmso stock, Table S9
Experimental: (1 picture or pasted object on this page, not shown here)
Each sample was tested in triplicate.

Compound: COC(=O)C1(C(CC(=O)c2ccccc2)c2ccccc2)N=C(c2ccc(Br)cc2)C2C(=O)N(C)C(=O)C21 (centres unmarked) [7a]
- IC50 (Shh-LIGHT2 cells; Shh Light2, Figure 2a, mean of three independent experiments): 1600 nM
- Inhibition of GLI-dependent reporter gene expression (in words) (Shh-LIGHT2 cells): did not inhibit
- Localization of SMO to cilia (in words) (NIH/3T3 cells): did not affect the localization of SMO to cilia
- Solubility (in words) [1]: limited solubility
- solubility kinetic [1]: 5.7 µM (≈ 3.27 µg/mL)

Compound: COC(=O)C1(C(CC(=O)c2cccnc2)c2ccccc2)N=C(c2ccc(Br)cc2)C2C(=O)N(C)C(=O)C21 (centres unmarked) [7l]
- Inhibition of GLI-dependent reporter gene expression (in words) (Shh-LIGHT2 cells): did not suppress
- Localization of SMO to cilia (in words) (NIH/3T3 cells): SMO was localized to the cilia
- solubility kinetic [1]: 47.3 µM (≈ 27.2 µg/mL)
